Patent publication US6747050B1, “Isoxazoline derivative and a process for the preparation thereof” (LG Chem Investment Ltd., priority 1999, dated 2004)
Each block holds one compound with its values, some of them ahead of it.

How the values were obtained:
caspase-3 = target: T1, caspase-3 (Homo sapiens, UniProt P42574); experiment: Recombinant caspase enzyme inhibition, fluorogenic substrate Ac-DEVD-AMC; format: biochemical; conditions: Irreversible Inhibitors; read-out: Kobs/[I] for caspase-3
T1 construct: made in house; host or cells: transformed bacterium (pET vector)
T1 sequence (P42574 29-175 limits assumed): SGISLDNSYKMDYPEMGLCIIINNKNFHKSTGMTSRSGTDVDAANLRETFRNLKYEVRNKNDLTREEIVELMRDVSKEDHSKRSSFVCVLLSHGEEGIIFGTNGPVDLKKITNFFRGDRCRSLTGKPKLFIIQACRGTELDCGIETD
T1 sequence (P42574 176-277 limits assumed): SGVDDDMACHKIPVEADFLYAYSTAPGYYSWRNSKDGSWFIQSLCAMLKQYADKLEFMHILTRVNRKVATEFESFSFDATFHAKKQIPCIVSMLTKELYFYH
Description: (§1) In the present experiment recombinant caspases were purified from a transformed bacterium after human caspase genes were cloned into the expression vector pET, and then used in the experiment (Thornberry, N. A. et al. Nature, 1992, 356, 768. Thornberry, N. A. Methods in Enzymology, 1994, 615.).
(§2) Enzymatic activity was measured by a known procedure (Walker N. P. C. et al., Cell 1994, 78, 343). Briefly, 10 ng of recombinant protein was mixed with 50 mM Tris(pH 7.0), 1 mM DTT, 0.5 mM EDTA, 10% Glycerol buffer containing 1˜100 μM of enzyme substrate, Ac-YVAD-AMC or Ac-DEVD-AMC and then the changes by isolated AMC at 37° C. were recorded. The inhibitory activity for caspases was calculated from the early enzyme reaction rate by measuring the changes with fluorescence excited at […] and emitted at 460 nm (Range; Ki<100 nM).

caspase-1 = target: T2, caspase-1 (Homo sapiens, UniProt P29466); experiment: Recombinant caspase enzyme inhibition, fluorogenic substrate Ac-YVAD-AMC; format: biochemical; conditions: Irreversible Inhibitors; read-out: Kobs/[I] for caspase-1
T2 construct: made in house; host or cells: transformed bacterium (pET vector)
T2 sequence (P29466 120-297 limits assumed): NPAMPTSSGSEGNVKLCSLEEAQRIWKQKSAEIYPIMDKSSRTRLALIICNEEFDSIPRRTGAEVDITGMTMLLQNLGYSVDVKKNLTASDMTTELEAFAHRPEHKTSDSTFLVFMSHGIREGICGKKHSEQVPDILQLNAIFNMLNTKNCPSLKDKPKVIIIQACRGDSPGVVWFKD
T2 sequence (P29466 317-404 limits assumed): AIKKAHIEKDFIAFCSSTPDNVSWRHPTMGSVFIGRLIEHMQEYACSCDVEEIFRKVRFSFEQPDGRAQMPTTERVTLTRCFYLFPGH
Description: as §1, §2

C57BL/6 female mice [1] = experiment: TNFα-induced liver toxicity and lethality in mice; format: in vivo; conditions: TNFα/ActD
Description: […] C57BL/6 female mice (18-20 g) were injected i.p. with compound 33MP dissolved in vehicle which consists of olive oil and 10% DMSO, or vehicle alone, at 1 hr before i.v. injection with 10 μg of Anti-Fas antibody (Jo2). Following 4 hrs of i.v. injection with Jo2 antibody, animals were placed under inhaled isoflurane anesthesia for blood collection and liver isolation. […] 8 hrs later, blood and liver tissues were isolated from anesthetized animals. The liver tissues were snap-frozen and stored at −80° C. until use. Plasma was isolated from blood by centrifugation at 12,000×g for 10 min at 4° C. and stored at −80° C. In some experiments for animal mortality, mice were i.p. injected with TNFα/GalN and caspase inhibitor was injected 1 hr before, simultaneously, 2 hrs, or 4 hrs after TNFα/GalN injection
(§3) Whole tissues (0.5 g) were homogenated in ice-cold lysis buffer (5 mM Tris, 20 mM EDTA, 0.5% Triton-X 100, pH8.0). […] The supernatant was obtained and extracted twice with a mixture of phenol and chloroform. One-tenth volume of 3 M sodium acetate was added to the solution, and DNA was precipitated by adding an equal volume of isopropanol. After storing at −20° C. overnight, a DNA pellet was obtained by centrifugation at 12,000×g for 15 min. at 4° C. and washed twice with 75% ethanol. The pellet was dried and resuspended in 100 μl of 20 mM Tris-HCl, pH 8.0. After digesting RNA with DNase-free RNase (0.1 mg/ml, at 37° C. for 1 hr, samples […] were electrophoresed through a 1.2% agarose gel in 450 mM Tris borate+EDTA (TBE), pH 8.0 buffer. DNA was photographed under visualized with UV light.
(§4) Liver tissues were homogenated in 10 mM HEPES buffer containing protease inhibitors (5 μg/ml aprotinin, 5 μg/ml pepstatin A, 10 μg/ml leupeptin, and 0.5 mM PMSF) and lysed by three feeze/thaw cycles. […] Protein concentration was determined with BCA protein assay reagent (pierce, Rockford, Ill.). Cytosol containing 200 μg protein was combined in 96-well plate with […] of synthetic substrate Ac-DEVD-pNA in 150 μl of 100 mM HEPES, pH 7.4, containing the protease inhibitors, and the reaction was conducted for 1 hr at 37° C. […] Plasma level of aspartate aminotransferase (AST) was analyzed by spectrophotometry using each enzyme assay kit (Sigma).

C57BL/6 female mice [2] = experiment: anti-Fas antibody (Jo2)-induced liver apoptosis and lethality in mice; format: in vivo
Description: […] C57BL/6 female mice (18-20 g) were injected i.p. with compound 33MP dissolved in vehicle which consists of olive oil and 10% DMSO, or vehicle alone, at 1 hr before i.v. injection with 10 μg of Anti-Fas antibody (Jo2). Following 4 hrs of i.v. injection with Jo2 antibody, animals were placed under inhaled isoflurane anesthesia for blood collection and liver isolation. Mice were also i.p. injected with 0.2 μg/20 g of TNFα and 12 mg/20 g of D-galactosamine (TNFα/GalN) and compound 33MP or its salt form (Compound 33MP-Na). 8 hrs later, blood and liver tissues were isolated from anesthetized animals. The liver tissues were snap-frozen and stored at −80° C. until use. Plasma was isolated from blood by centrifugation at 12,000×g for 10 min at 4° C. and stored at −80° C. In some experiments for animal mortality, mice were i.p. injected with TNFα/GalN and caspase inhibitor was injected 1 hr before, simultaneously, 2 hrs, or 4 hrs after TNFα/GalN injection
as §3, §4

[3] = system: caspase-3-like activity (Ac-DEVD-pNA); experiment: Caspase-3-like activity in TNFα/ActD-treated primary rat hepatocytes; format: cell-based; conditions: 100 μM, 8 hrs
Description: Primary rat hepatocytes were isolated and purified from male Sprague-Dawley rats using a collagenase digestion method. The hepatocytes were purified over 30% Percoll gradient by centrifugation at 1,000×g for 10 min. at 4° C. […] The cells were plated on collagen-coated tissue culture plates at a density of 2×10^5 cells/well in 12-well plates for cell viability analysis or 5×10^6 cells/100 mm dish for enzyme assays. After 18 hrs preculture, the cells were treated with 2,000 units/ml TNFα and 0.2 μg/ml Actinomycin (ActD). Caspase activity and cell viability was determined by colorimetry using a caspase substrate Ac-DEVD-pNA and crystal violet staining method at 8 hrs and 12 hrs, respectively.

kinact/KI (caspase-3): 1230 M⁻¹ s⁻¹ | kinact/KI (caspase-1): 707000 M⁻¹ s⁻¹
Structure (SMILES): CC(C)[C@H](NC(=O)c1cc2ccccc2[nH]1)C1=NOC(Cc2ccccc2)(C(=O)N[C@@H](CC(=O)O)C(=O)COC(=O)c2c(Cl)cccc2Cl)C1 (stereo partly drawn) [Compound 64, (3S)-3-{3-[2-Methyl-(1S)-1-(indole-2-carbonylamino)-propyl]-5-phenylmethyl-4,5-dihydro-isoxazole-5-carbonylamino}-4-keto-5-(2,6-dichlorobenzoyloxy)-pentanoic Acid]

kinact/KI (caspase-3): 1560 M⁻¹ s⁻¹ | kinact/KI (caspase-1): 357000 M⁻¹ s⁻¹
Structure (SMILES): CC(C)[C@H](NC(=O)c1c[nH]c2ccccc12)C1=NOC(Cc2ccccc2)(C(=O)N[C@@H](CC(=O)O)C(=O)COC(=O)c2c(Cl)cccc2Cl)C1 (stereo partly drawn) [Compound 66, (3S)-3-{3-[2-Methyl-(1S)-1-(indole-3-carbonylamino)-propyl]-5-phenylmethyl-4,5-dihydro-isoxazole-5-carbonylamino}-4-keto-5-(2,6-dichlorobenzoyloxy)-pentanoic Acid]

Structure (SMILES): CC(C)[C@H](NC(=O)c1cccc2ccccc12)C1=NOC(Cc2ccccc2)(C(=O)N[C@@H](CC(=O)O)C(=O)COC(=O)c2c(Cl)cccc2Cl)C1 (stereo partly drawn) [Compound 33MP, (3S)-3-{3-[2-Methyl-(1S)-1-(1-naphthalenecarbonylamino)-propyl]-5-phenylmethyl-4,5-dihydro-isoxazole-5-carbonylamino}-4-keto-5-(2,6-dichlorobenzoyloxy)-pentanoic Acid]
DNA fragmentation in liver tissues (FIG. 12A) (C57BL/6 female mice [1]): significantly reduced | caspase-3-like activity in liver (FIG. 13) (C57BL/6 female mice [1]): suppressed | inhibitory effect on caspase activity compared with Z-VAD-fmk (C57BL/6 female mice [1]): higher | protective effect compared with Z-VAD-fmk (C57BL/6 female mice [1]): higher | release of AST (FIG. 12B) (C57BL/6 female mice [1]): suppressed | liver apoptosis determined by DNA fragmentation (FIG. 9A) (C57BL/6 female mice [2]; 0.4 mg/20 g, 1 mg/20 g i.p. 1 hr before antibody, 4 hrs): suppressed the liver apoptosis in a dose-dependent manner | release of liver enzyme AST (FIG. 9B) (C57BL/6 female mice [2]; 4 hrs after anti-Fas antibody): significantly suppressed | caspase-3-like activity in liver tissues (FIG. 10) (C57BL/6 female mice [2]; anti-Fas antibody increased activity about 25-folds): abrogated | inhibition of mortality compared with Z-VAD-fmk (C57BL/6 female mice [2]; mouse, in vivo): more effective | suppression of AST release compared with Z-VAD-fmk (C57BL/6 female mice [2]; mouse, in vivo): higher | suppression of liver apoptosis compared with Z-VAD-fmk (C57BL/6 female mice [2]; mouse, in vivo): higher | reduction of mortality (FIG. 11) (C57BL/6 female mice [2]; within 24 hrs, antibody alone 85% died): about 30% | caspase-3-like activity increased by TNFα/ActD (FIG. 15A) [3]: not different

kinact/KI (caspase-3): 2390 M⁻¹ s⁻¹ | kinact/KI (caspase-1): 616000 M⁻¹ s⁻¹
Structure (SMILES): CC(C)[C@H](NC(=O)c1cccc2ccccc12)C1=NOC(C)(C(=O)N[C@@H](CC(=O)O)C(=O)COC(=O)c2c(Cl)cccc2Cl)C1 (stereo partly drawn) [Compound 68, (3S)-3-{3-[2-Methyl-(1S)-1-(naphthalene-1-carbonylamino)-propyl]-5-methyl-4,5-dihydro-isoxazole-5-carbonylamino}-4-keto-5-(2,6-dichlorobenzoyloxy)-pentanoic Acid]
